The text below walks through data of patent publication US7094754B2, “Anti-aging and wound healing compounds” (Kimberly-Clark Worldwide, Inc., priority 2001, dated 2006).

Ends that are not written are not given here.

Type in all cases: cell-based
Series [1] concerns neutrophils isolated from human blood. Briefly: Neutrophil migration assay (transwell). To be noted: 10 nM, positive control; HSA 0.4%. The protocol: Peptides were synthesized and purified by the Microchemical Facility at Emory University or by SigmaGenesis. All peptides were analyzed by mass spectrometry after HPLC to assess purity. Approximately 0.5–2.0 milligrams of peptide were used to make fresh stock solutions (5 mg/mL in HBSS/HSA) for each migration assay. The peptide stock solutions were used to make more dilute solutions (1 mg/mL, 100 μg/mL, 10 μg/mL, 1 μg/mL, 100 ng/mL, and 10 ng/mL) in HBSS/HSA for the assays.
Neutrophils were isolated from human blood (collected in Vacutainerm tubes containing EDTA) by layering the blood/EDTA mixture (about 20 mL) on top of two layers of Histopaque™ 1119 (bottom layer, 18 mL) and 1077 (top layer, 7 mL) in 50 mL Falcon tubes. The tubes were centrifuged at 1800 rpm for 30 minutes (no brake). Four layers appeared in the tubes after the spin (from top to bottom layers): plasma, 1077, 1119, and red blood cells. The buffy coat between the plasma and 1077 layers contained lymphocytes, monocytes, and some platelets. The plasma layer, the buffy coat, and most of the 1077 layer was removed and discarded. The 1119 layer that contained the neutrophils was removed and was placed into a clean 50 mL tube. Dulbecco's Phosphate Buffered Saline (DPBS) was added to bring the volume to 50 mL. The cells were centrifuged for 15 minutes at 2100 rpm. The cells were resuspended in 10 mL of DPBS, transferred to 15 mL tubes, and centrifuged again for 10 minutes at 2000 rpm. This process was repeated to wash the cells a second time. After the supernatant was removed, the red blood cells were lysed by adding 6 mL of cold sterile water to each 15 mL of supernatant. Cells were mixed in the water for only 30 seconds. Six mL of cold 2% sterile saline was then added. Cells were centrifuged again for 10 minutes at 2000 rpm. The red supernatant (containing hemoglobin from red blood cells) was removed. This process of red blood cell lysis was repeated two more times to remove all of the red blood cells. After most of the red blood cells were removed, neutrophils were resuspended in 10 mL of HBSS/HSA for counting with trypan blue.
A neutrophil migration assay was performed in duplicate using a 24-well transwell plate (3 μm pore size for membrane). Transwell membranes were pre-moistened with 20–40 μL of HBSS/HSA (0.04–0.4%). Chemotactic solutions (500 μL) were added to the bottom of each well. […] Transwells were then placed into the chemotactic solutions. The plate was placed into the incubator (37° C., 5% CO2) for one hour. Cells that migrated through the membrane were counted using trypan blue.
In the neutrophil migration experiments, neutrophils that were isolated were approximately 95% viable. Neutrophils were resuspended in HBSS/0.4%HSA for this experiment. IL-8 (10 nM in the HBSS/0.4%HSA buffer) was used as a positive control for neutrophil migration.

Series [2] is described as follows: Viability assay (MTT) in EpiDerm skin model. To be noted: human, EpiDerm skin model (MatTek), relative to PBS control, average over 500 μM and 2 mM, read-out: total average viability. The source says: FIG. 16 provides a bar graph showing the percent living cells, relative to a positive control, in a skin model after treatment with two concentrations of peptide. The first sample, treated with phosphate buffered saline (PBS), is the positive control used to establish the cell count representing 100% viability. The second sample is a negative control where cells were exposed to 1% Triton-X100, showing that the assay can detect cell death. […] Data shown represent the average of three tests.
The sample containers were transferred to 6 well plates that contained fresh media. All peptides were dissolved in PBS at a final concentration of 10 mM, and 100 μL each peptide solution was pipetted onto the surface of the Epiderm sample container. Incubation was continued for 12 hours at 37° C., 5% CO2. After the incubation period, the sample containers were washed three times with PBS and the sample containers were transferred to a 24 well plate that contained 300 μL of MTT assay media per well (MTT concentration was 1 mg/mL). The colorimetric assay was allowed to develop for three hours (incubation at 37° C., 5% CO2). Sample containers were then transferred to a 24 well culture plate that contained 2 mL of isopropanol per well. Extraction of the colored precipitate occurred over a period of four hours at room temperature. Absorbance readings were taken at 570 nm and 650 nm for each sample. The percent viability of each sample relative to a PBS control was calculated as: 100×(OD570^sam−OD650^sam)/(OD570^con−OD650^con) (6) Routinely, the peptide sample was assayed in triplicate. Results The sequence of matrix metalloproteinase-2 (SEQ ID NO:14) is provided below to facilitate definition of the various domains and regions in matrix metalloproteinases.

The test system of series [3] is normal human dermal fibroblasts (NHDF). In words: NHDF migration assay (48-well chemotaxis chamber). To be noted: three hours. The protocol: Normal, human dermal fibroblasts (NHDF) were obtained from Biowhittaker, (Walkersville, Md.) and propagated in T75 flasks in FBM media (500 mL, Biowhittaker) containing insulin, hFGF-b, GA-1000, and fetal bovine serum (10 mL) for up to 12 passages. For the migration assay, NHDF were washed once with 10 mL of Hank's buffered saline solution (HBSS). Three milliliters of trypsin (0.25%) in EDTA were added to the T75 flask for no more than five minutes to remove NHDF from the flask. NHDF in trypsin solution were added to 7 mL of FBM with no supplements added. NHDF were centrifuged for 5 minutes, and the supernatant was removed. NHDF were resuspended in 10 mL of FBM for counting. NHDF were centrifuged for another 5 minutes, and the supernatant was removed. NHDF were resuspended at 1×10^6 cells per mL in FBM without supplements. It was important to use FBM media only in migration assays because the complete media contains fibroblast growth factor and serum, both of which will trigger migration of fibroblasts.
Peptides were synthesized and purified by the Microchemical Facility at Emory University or by SigmaGenesis. All peptides were analyzed by mass spectrometry after HPLC to assess purity. Approximately 0.5–2.0 milligrams of peptide were used to make fresh stock solutions (5 mg/mL in PBS) for each migration assay. The peptide stock solutions in PBS were used to make more dilute solutions (1 mg/mL, 100 μg/mL, 10 μg/mL, 1 μg/mL, 100 ng/mL, 10 ng/mL) in FBM (without supplements) for the migration assays.
Polyvinylpyrrolidone-free polycarbonate membranes with […] pores (Neuroprobe, Inc., Gaithersburg, Md.) were washed with 90% ethanol for 15 minutes and rinsed four times with deionized water. Membranes were then placed into a glass dish containing an aqueous solution of 5 μg/mL gelatin. The glass dish was placed in to a water bath at about 90° C. for one hour. Membranes were removed from the gelatin solution and were allowed to dry for one hour in the 37° C. incubator.
A 48-well chemotaxis chamber (Neuroprobe, Inc., Gaithersburg, Md.) (see FIG. 20) was used for the migration assays. Twenty-eight/μL of each test solution were added to the bottom wells of the chamber in quadruplicate. A gelatin-treated membrane was placed carefully on top of the bottom wells. The gasket and top part of chamber were then placed carefully on top of the membrane. The apparatus was tightened using six thumbscrews. A solution of NHDF containing an estimated cell density (2×10^5 cells per mL) was made by adding 320 μL of the 1×10^6 cells per mL solution to 1.28 mL of FBM (no supplements). Fifty microliters of the 2×10^5 cells per mL NHDF solution were added to the top part of each well in the chamber. The chamber was placed in the incubator at 37° C./5% CO2 for three hours. The chamber was removed, the thumbscrews were removed, and the chamber was turned upside down on a paper towel. […] The membrane was carefully removed. […] The membrane was fixed with methanol and stained using the Diff-Quik Staining Solutions I and II. The nuclei of NHDF are stained purple. The membrane was mounted on a glass slide using cedarwood immersion oil and a cover slip. […] The average number of migrated NHDF in the negative control was subtracted from the experimental (peptide) data and positive control data.

For “IL-8: positive control for neutrophil migration (10 nM in HBSS/HSA buffer) [reference compound]”, the “Percent Neutrophil Migration exp.1” value in series [1] is recorded as 81%.
As to PRCGNPDVA [9-mer], the viability at 12 h in series [2] came to 95.8%. Further, the “percent of migrated NHDF compared to plasma fibronectin positive control” value is on record as 16±0% in series [3] (100 μg/mL peptide) and 32±2% in series [3] (1000 μg/mL peptide).
Regarding NYNFFPRKPK [10-mer], the viability at 12 h in series [2] came out at 89.6%. In addition, the results for the “percent of migrated NHDF compared to plasma fibronectin positive control” value in series [3] (100 μg/mL peptide) and in series [3] (1000 μg/mL peptide) were 11±0% and 30±2%, respectively.
